For test [1], the target named is T1, PRMT5 (Homo sapiens, UniProt O14744).
T1 construct: purchased Viva (custom protein)
Description: PRMT5 biochemical IC50 assay with SAM as cofactor. The following applies: PRMT5, SAM as cofactor; read-out: SAM IC50.

For test [2], the system named is HAP1 MTAP-intact cell line. Description: SDMA in-cell western assay, HAP1 MTAP-intact. It is filed as cell-based. The following applies: Homo sapiens, HAP1, SDMA in-cell western, HAP1 MTAP-intact; read-out: MTAP HAP1 intact IC50. In short, it runs like this:
(§1)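 Isogenic HAP1 pair: the MTAP-intact line expresses endogenous MTAP, and the deleted line is MTAP-null. Symmetric dimethylarginine was detected by in-cell western and IC50 values derived for each line.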

The test system of test [3] is HAP1 MTAP-deleted cell line. The test can be described thus: SDMA in-cell western assay, HAP1 MTAP-deleted. It is filed as cell-based. The conditions noted are these: for IC50: Homo sapiens, HAP1, SDMA in-cell western, HAP1 MTAP-deleted; for MTAP intact/deleted ratio: SDMA in-cell western. The method in brief: as §1
Test [4] concerns HAP1 MTAP-deleted cell line. The test can be described thus: Viability assay, MTAP-deleted cell line. It is filed as cell-based. The conditions noted are these: Homo sapiens, read-out: HAP1 MTAP deleted viability. From the text: Table 1 additionally indicates IC50 values in a viability assay for the MTAP-deleted cell line (column 10), indicating the effect of treatment with compound on cell survival.

In test [5] the target is T1, PRMT5. The test can be described thus: PRMT5 biochemical IC50 assay with no cofactor. The following applies: PRMT5, no cofactor. The text has this: Table 1 indicates IC50 values (μM) against PRMT5 for exemplary compounds in the presence of SAM as cofactor, with no cofactor, and with MTA as cofactor, respectively (columns 4-6). […] Ki values can be calculated from the IC50 values as described in the Examples section. As detailed in the Examples section, for the assay performed in the presence of SAM, IC50=Ki×1.5 (Ki=IC50/1.5).

The target of test [6] is T1, PRMT5. The test can be described thus: PRMT5 biochemical IC50 assay with MTA as cofactor. The following applies: PRMT5, MTA as cofactor; read-out: MTA IC50.
The mark [7] stands for this setting: read-out: HAP 1 MTAP deleted IC50.
Setting [8] is: IC50 ratio HAP1 MTAP-intact / HAP1 MTAP-deleted.
Where [9] appears, read: HAP1, viability assay, MTAP-deleted cell line.
[10] abbreviates: read-out: No Cofactor/ rel IC50.
Setting [11] is: HAP1, viability, HAP1 MTAP-deleted cell line.
The mark [12] stands for this setting: read-out: HAP1 MTAP deleted IC50.
[13] abbreviates: HAP1, viability IC50, MTAP-deleted cell line.

Structures are written as SMILES.

Experimental findings from patent US11999727B2 (Tango Therapeutics, Inc., priority 2020, dated 2024) are described below.

T1 sequence (O14744 whole entry): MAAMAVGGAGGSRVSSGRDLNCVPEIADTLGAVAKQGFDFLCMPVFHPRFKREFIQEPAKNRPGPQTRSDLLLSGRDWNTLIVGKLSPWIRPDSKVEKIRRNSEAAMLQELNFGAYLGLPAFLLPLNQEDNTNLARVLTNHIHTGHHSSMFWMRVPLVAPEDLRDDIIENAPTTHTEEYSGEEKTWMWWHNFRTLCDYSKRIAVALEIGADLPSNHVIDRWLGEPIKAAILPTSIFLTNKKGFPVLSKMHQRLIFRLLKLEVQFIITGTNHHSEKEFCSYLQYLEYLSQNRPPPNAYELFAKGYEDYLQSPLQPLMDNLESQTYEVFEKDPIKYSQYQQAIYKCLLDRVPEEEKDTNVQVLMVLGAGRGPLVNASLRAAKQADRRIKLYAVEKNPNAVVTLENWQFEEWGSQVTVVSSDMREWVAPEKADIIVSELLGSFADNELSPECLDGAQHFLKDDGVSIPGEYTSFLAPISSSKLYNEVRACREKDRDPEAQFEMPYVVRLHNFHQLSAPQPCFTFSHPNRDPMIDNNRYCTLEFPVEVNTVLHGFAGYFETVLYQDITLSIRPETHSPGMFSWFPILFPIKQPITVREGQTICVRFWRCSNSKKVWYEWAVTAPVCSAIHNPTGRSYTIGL
T1 sequence (Q9BQA1 whole entry partner): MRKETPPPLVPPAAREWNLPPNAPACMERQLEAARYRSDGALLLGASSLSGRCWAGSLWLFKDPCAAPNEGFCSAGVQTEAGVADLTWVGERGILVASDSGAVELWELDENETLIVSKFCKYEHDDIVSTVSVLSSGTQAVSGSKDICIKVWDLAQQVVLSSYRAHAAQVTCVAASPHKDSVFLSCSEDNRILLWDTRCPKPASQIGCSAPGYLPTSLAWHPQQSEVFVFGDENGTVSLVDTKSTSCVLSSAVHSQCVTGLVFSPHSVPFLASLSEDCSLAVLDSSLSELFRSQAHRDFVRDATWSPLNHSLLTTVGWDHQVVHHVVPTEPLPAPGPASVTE

Consider `Cc1cc(NC(=O)C(=O)N2C[C@H](C)CC[C@@H]2c2ccnn2C)cnc1N` (racemic) [Compound 66, rac-N-(6-amino-5-methylpyridin-3-yl)-2-((2R,5R)-5-methyl-2-(1-methyl-1H-pyrazol-5-yl)piperidin-1-yl)-2-oxoacetamide], for which the IC50 on PRMT5 [1] was 50 to 500 nM; in test [2] it was > 1000 nM; in test [3] (setting [7]), 100 to 1000 nM; in test [4] (setting [9]), > 10000 nM; at PRMT5 [5] (setting [10]), 50 to 500 nM; on PRMT5 [6], < 50 nM. For the same molecule, the “MTAP intact/deleted ratio” value in test [3] (setting [8]) is recorded as “A (an IC50 ratio greater than or equal to 10 fold)”.

Take `CCc1cc(NC(=O)C(=O)N2C[C@@H](C)CC[C@@H]2c2ccc(N3CCOC4(CN(C)C4)C3)cc2)cnc1N` (single isomer, unassigned) [Compound 1339]: the IC50 was 50 to 500 nM on PRMT5 [1]; 100 to 1000 nM in test [2]; < 100 nM in test [3] (setting [7]); < 1000 nM in test [4] (setting [11]); < 50 nM at PRMT5 [5] (setting [10]); < 50 nM on PRMT5 [6]. In test [3] (setting [8]), the “MTAP intact/deleted ratio” value is given as “A (an IC50 ratio greater than or equal to 10 fold)”.

In the case of `Cc1cc(NC(=O)C(=O)N2CCCCC2C23CC(C(F)(F)F)(C2)C3)cnc1N` (centres unmarked) [Compound 217, N-(6-amino-5-methyl-3-pyridyl)-2-oxo-2-[2-[3-(trifluoromethyl)-1-bicyclo[1.1.1]pentanyl]-1-piperidyl]acetamide], the IC50 at PRMT5 [1] was 50 to 500 nM; in test [2], > 1000 nM; in test [3] (setting [12]), > 1000 nM; in test [4] (setting [9]), > 10000 nM; at PRMT5 [5] (read-out: No Cofactor/rel IC50), > 500 nM; on PRMT5 [6] it was 50 to 500 nM. Besides, the MTAP intact/deleted ratio result in test [3] (setting [8]) is listed as “B (an IC50 ratio greater than or equal to 3 fold but lower than 10 fold)”.

`C[C@H]1CC[C@H](c2ccc3[nH]ncc3c2F)N(C(=O)C(=O)Nc2cncc(C(N)=O)c2)C1` (single isomer, unassigned) [Compound 637]: the IC50 is > 500 nM at PRMT5 [1]; > 1000 nM in test [2]; 100 to 1000 nM in test [3] (setting [7]); > 10000 nM in test [4] (setting [13]); > 500 nM on PRMT5 [5] (read-out: No Cofactor/rel IC50); > 500 nM at PRMT5 [6]. For the same molecule, the MTAP intact/deleted ratio entry in test [3] (setting [8]) was “A (an IC50 ratio greater than or equal to 10 fold)”.

Turning to `C[C@@H]1CC[C@@H](c2cc(F)cc(Cl)c2)N(C(=O)C(=O)Nc2cncc(C(N)=O)c2)C1` (single isomer, unassigned) [Compound 1084], the IC50 is > 500 nM at PRMT5 [1]; > 1000 nM in test [2]; > 1000 nM in test [3] (setting [12]); > 10000 nM in test [4] (setting [9]); > 500 nM at PRMT5 [5] (read-out: No Cofactor/rel IC50); > 500 nM on PRMT5 [6]. For the same molecule, in test [3] (IC50 ratio HAP1 MTAP-intact vs HAP1 MTAP-deleted), the MTAP intact/deleted ratio result is recorded as “C (an IC50 ratio of less than 3 fold)”.

On to `C[C@@H]1CC[C@@H](c2cc(F)c3[nH]ncc3c2)N(C(=O)C(=O)Nc2cncc(C(N)=O)c2)C1` (single isomer, unassigned) [Compound 663], for which the IC50 at PRMT5 [1] was 50 to 500 nM; in test [2], > 1000 nM; in test [3] (setting [7]) it was < 100 nM; in test [4] (setting [13]) it was 1000 to 10000 nM; on PRMT5 [5] (read-out: No Cofactor/rel IC50), < 50 nM; at PRMT5 [6], < 50 nM. Besides, the MTAP intact/deleted ratio entry in test [3] (setting [8]) is “A (an IC50 ratio greater than or equal to 10 fold)”.

On to `Cc1cc(NC(=O)C(=O)N2C[C@H](C)CC[C@H]2[C@H]2CC[C@@H](O)CC2)cnc1N` (single isomer, unassigned) [Compound 436], for which the IC50 was 50 to 500 nM on PRMT5 [1]; > 1000 nM in test [2]; 100 to 1000 nM in test [3] (setting [12]); > 10000 nM in test [4] (setting [9]); 50 to 500 nM at PRMT5 [5] (read-out: No Cofactor/rel IC50); 50 to 500 nM on PRMT5 [6]. Also, in test [3] (setting [8]), the MTAP intact/deleted ratio result is recorded as “A (an IC50 ratio greater than or equal to 10 fold)”.

With `Cc1cncc(NC(=O)C(=O)N2C[C@H](C)CC[C@H]2c2ccc(O)cc2)c1` (racemic) [Compound 557, rac-2-((2R,5S)-2-(4-hydroxyphenyl)-5-methylpiperidin-1-yl)-N-(5-methylpyridin-3-yl)-2-oxoacetamide], the IC50 is 50 to 500 nM on PRMT5 [1]; > 1000 nM in test [2]; 100 to 1000 nM in test [3] (setting [7]); > 10000 nM in test [4] (setting [13]); 50 to 500 nM at PRMT5 [5] (read-out: No Cofactor/rel IC50); 50 to 500 nM at PRMT5 [6]. In addition, the MTAP intact/deleted ratio entry in test [3] (setting [8]) is “A (an IC50 ratio greater than or equal to 10 fold)”.

For `COc1ncc(NC(=O)C(=O)N2C[C@@H](C)CC[C@@H]2c2ccc3[nH]c(C)nc3c2)cc1C(N)=O` (single isomer, unassigned) [Compound 924], the IC50 on PRMT5 [1] is > 500 nM; in test [2], > 1000 nM; in test [3] (setting [7]) it was > 1000 nM; in test [4] (setting [9]), > 10000 nM; on PRMT5 [5] (read-out: No Cofactor/rel IC50), > 500 nM; on PRMT5 [6], > 500 nM. For the same molecule, the MTAP intact/deleted ratio result in test [3] (setting [8]) is “B (an IC50 ratio greater than or equal to 3 fold but lower than 10 fold)”.

Regarding `COc1cc([C@H]2CC[C@H](C)CN2C(=O)C(=O)Nc2cncc(C(N)=O)c2)ccn1` (single isomer, unassigned) [Compound 533], the IC50 is > 500 nM at PRMT5 [1]; > 1000 nM in test [2]; > 1000 nM in test [3] (setting [7]); > 10000 nM in test [4] (setting [13]); > 500 nM at PRMT5 [5] (read-out: No Cofactor/rel IC50); > 500 nM at PRMT5 [6]. The MTAP intact/deleted ratio entry in test [3] (setting [8]) is “C (an IC50 ratio of less than 3 fold)”.

With `CCc1cc(NC(=O)C(=O)N2C[C@@H](C)CC[C@@H]2c2ccc(N3CCN(C)CC3)c(C)c2)cnc1N` [Compound 1390, N-(6-Amino-5-ethyl-3-pyridyl)-2-[(2R,5S)-5-methyl-2-[3-methyl-4-(4-methylpiperazin-1-yl)phenyl]-1-piperidyl]-2-oxo-acetamide], the IC50 is 50 to 500 nM on PRMT5 [1]; 100 to 1000 nM in test [2]; < 100 nM in test [3] (setting [7]); < 1000 nM in test [4] (setting [11]); 50 to 500 nM at PRMT5 [5] (setting [10]); < 50 nM at PRMT5 [6]. Besides, the “MTAP intact/deleted ratio” value in test [3] (setting [8]) is on record as “A (an IC50 ratio greater than or equal to 10 fold)”.

In the case of `Cc1cncc(NC(=O)C(=O)N2C[C@H](C)CC[C@H]2c2cccc(C)c2)c1` (racemic) [Compound 8, rac-2-[(2R,5S)-5-methyl-2-(m-tolyl)-1-piperidyl]-N-(5-methyl-3-pyridyl)-2-oxo-acetamide], the IC50 was > 500 nM at PRMT5 [1]; > 1000 nM in test [2]; > 1000 nM in test [3] (setting [7]); > 10000 nM in test [4] (setting [9]); > 500 nM at PRMT5 [5] (setting [10]); 50 to 500 nM on PRMT5 [6]. Moreover, the “MTAP intact/deleted ratio” value in test [3] (setting [8]) is “C (an IC50 ratio of less than 3 fold)”.

With `Cc1cc(NC(=O)C(=O)N2C[C@H](C)CC[C@H]2c2ccc(C(F)(F)F)c(Cl)c2)cnc1N` (single isomer, unassigned) [Compound 689], the IC50 on PRMT5 [1] was > 500 nM; in test [2], > 1000 nM; in test [3] (setting [7]), > 1000 nM; in test [4] (setting [13]), > 10000 nM; on PRMT5 [5] (read-out: No Cofactor/rel IC50), > 500 nM; on PRMT5 [6], > 500 nM. Also, the MTAP intact/deleted ratio entry in test [3] (setting [8]) is given as “C (an IC50 ratio of less than 3 fold)”.

Consider `Cc1cc(NC(=O)C(=O)N2C[C@H](C)CC[C@H]2c2ccc(N)cc2)cnc1N` (single isomer, unassigned) [Compound 461], for which the IC50 on PRMT5 [1] is 50 to 500 nM; in test [2], 100 to 1000 nM; in test [3] (setting [12]) it was < 100 nM; in test [4] (setting [9]), < 1000 nM; on PRMT5 [5] (read-out: No Cofactor/rel IC50) it was < 50 nM; at PRMT5 [6], < 50 nM. Also, the MTAP intact/deleted ratio result in test [3] (setting [8]) was “B (an IC50 ratio greater than or equal to 3 fold but lower than 10 fold)”.
